# Values of other authors in US20060099230A1, “Novel formulations of eprosartan with enhanced bioavailability” (priority 2004, published 2006).
# Structures can show the parent of a compound that is named as a salt.
# Settings: for bioavailability (mean absolute / oral): conventional formulation, dose not stated
bioavailability (mean absolute / oral),effect of food on absorption (administered with food),accumulation (chronic use),absolute bioavailability (following a 300 mg oral dose),dose proportionality of plasma concentrations (over the 100 mg to 800 mg dose range),SMILES
13%,–,–,–,–,CCCCc1ncc(/C=C(\Cc2cccs2)C(=O)O)n1Cc1ccc(C(=O)O)cc1 [eprosartan mesylate]
13%,delays absorption,does not significantly accumulate,approximately 13%,slightly less than dose-proportional,"CCCCc1ncc(/C=C(\Cc2cccs2)C(=O)O)n1Cc1ccc(C(=O)O)cc1 [eprosartan, (E)-α-[2-n-butyl-1-[(4-carboxyphenyl)methyl]-1H-imidazol-5-yl]methylene-2-thiophenepropionic acid]"
